Data as given in ChEMBL document CHEMBL1201861, “Genomics of Drug Sensitity in Cancer screening data, Wellcome Trust Sanger Institute”.

Assays:
Test in all cases: cells
COLO-741 = assay type: functional, cell-based, Homo sapiens; details: Homo sapiens, COLO-741
Description: SANGER: Inhibition of human COLO-741 cell growth in a cell viability assay.

COLO-800 = assay type: functional, cell-based, Homo sapiens; details: Homo sapiens, COLO-800;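 note: growth inhibition of COLO-800 cells, read out with a cell viability assay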
Description: SANGER: Inhibition of human COLO-800 cell growth in a cell viability assay.

CTV-1 = assay type: functional, cell-based; details: Homo sapiens;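 note: growth inhibition of the cell line, read out with a cell viability assay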
Description: SANGER: Inhibition of human CTV-1 cell growth in a cell viability assay.

ChaGo-K-1 = assay type: functional, cell-based; details: Homo sapiens;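 note: growth inhibition of ChaGo-K-1 cells, read out with a cell viability assay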
Description: SANGER: Inhibition of human ChaGo-K-1 cell growth in a cell viability assay.

DJM-1 = assay type: functional, cell-based, Homo sapiens; details: Homo sapiens, DJM-1;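 note: growth inhibition of human DJM-1 cells, read out by a cell viability assay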
Description: SANGER: Inhibition of human DJM-1 cell growth in a cell viability assay.

DSH1 = assay type: functional, cell-based, Homo sapiens; details: Homo sapiens, DSH1;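 note: growth inhibition of human DSH1 cells, measured with a cell viability readout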
Description: SANGER: Inhibition of human DSH1 cell growth in a cell viability assay.

Detroit 562 = assay type: functional, cell-based, Homo sapiens; details: Homo sapiens, Detroit 562;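 note: growth inhibition of human Detroit 562 cells, read out by a cell viability assay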
EFO-21 = assay type: functional, cell-based, Homo sapiens; details: Homo sapiens, EFO-21;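 note: growth inhibition of EFO-21 cells measured with a viability assay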
Description: SANGER: Inhibition of human EFO-21 cell growth in a cell viability assay.

EW-1 = assay type: functional, cell-based, Homo sapiens; details: Homo sapiens, EW-1;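 note: growth inhibition of the human EW-1 cell line, read out by a cell viability assay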
Description: SANGER: Inhibition of human EW-1 cell growth in a cell viability assay.

EOL1 = assay type: functional, cell-based; details: Homo sapiens;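 note: growth inhibition of EoL-1 cells, read out by a cell viability assay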
Description: SANGER: Inhibition of human EoL-1-cell cell growth in a cell viability assay.

FTC-133 = assay type: functional, cell-based, Homo sapiens; details: Homo sapiens, FTC-133
G-401 = assay type: functional, cell-based, Homo sapiens; details: Homo sapiens, G-401
Description: SANGER: Inhibition of human G-401 cell growth in a cell viability assay.

GMS-10 = assay type: functional, cell-based, Homo sapiens; details: Homo sapiens, GMS-10;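 note: growth inhibition of GMS-10 cells, read out as cell viability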
Description: SANGER: Inhibition of human GMS-10 cell growth in a cell viability assay.

H4 = assay type: functional, cell-based; details: Homo sapiens
Description: SANGER: Inhibition of human H4 cell growth in a cell viability assay.

HAL-01 = assay type: functional, cell-based; details: Homo sapiens;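 note: growth inhibition of human HAL-01 cells, read out with a cell viability assay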
Description: SANGER: Inhibition of human HAL-01 cell growth in a cell viability assay.

HCC 2998 = assay type: functional, cell-based, Homo sapiens; details: Homo sapiens, HCC 2998;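 note: growth inhibition of human HCC2998 cells, measured with a cell viability read-out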
Description: SANGER: Inhibition of human HCC2998 cell growth in a cell viability assay.

HCC38 = assay type: functional, cell-based, Homo sapiens; details: Homo sapiens, HCC38;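 note: cell viability assay on the human HCC38 cell line, with IC50 marking the concentration that inhibits cell growth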
Description: SANGER: Inhibition of human HCC38 cell growth in a cell viability assay.

HDLM-2 = assay type: functional, cell-based; details: Homo sapiens;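 note: cell viability assay measuring suppression of HDLM-2 proliferation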
Description: SANGER: Inhibition of human HDLM-2 cell growth in a cell viability assay.

HOP-92 = assay type: functional, cell-based, Homo sapiens; details: Homo sapiens, HOP-92;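 note: cell viability readout, with IC50 reflecting inhibition of HOP-92 cell growth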
Description: SANGER: Inhibition of human HOP-92 cell growth in a cell viability assay.

HT-29 = assay type: functional, cell-based, Homo sapiens; details: Homo sapiens, HT-29;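 note: growth inhibition of human HT-29 cells, read out by a cell viability assay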
Description: SANGER: Inhibition of human HT-29 cell growth in a cell viability assay.

HTC-C3 = assay type: functional, cell-based, Homo sapiens; details: Homo sapiens, HTC-C3;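 note: inhibition of cell growth, read out with a cell viability assay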
Description: SANGER: Inhibition of human HTC-C3 cell growth in a cell viability assay.

HuP-T4 = assay type: functional, cell-based, Homo sapiens; details: Homo sapiens, HuP-T4;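 note: cell viability assay measuring how much HuP-T4 cell growth is inhibited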
Description: SANGER: Inhibition of human HuP-T4 cell growth in a cell viability assay.

IST-SL1 = assay type: functional, cell-based, Homo sapiens; details: Homo sapiens, IST-SL1;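 note: growth inhibition of human IST-SL1 cells, read out with a cell viability assay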
Description: SANGER: Inhibition of human IST-SL1 cell growth in a cell viability assay.

KURAMOCHI = assay type: functional, cell-based; details: Homo sapiens;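 note: growth inhibition of KURAMOCHI cells, read out with a cell viability assay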
Description: SANGER: Inhibition of human KURAMOCHI cell growth in a cell viability assay.

KY821 = assay type: functional, cell-based; details: Homo sapiens;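 note: growth inhibition of human KY821 cells, read out by a cell viability assay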
LCLC-103H cell line = assay type: functional, cell-based, Homo sapiens; details: Homo sapiens, LCLC-103H
Description: SANGER: Inhibition of human LCLC-103H cell growth in a cell viability assay.

LN-405 = assay type: functional, cell-based, Homo sapiens; details: Homo sapiens, LN-405
Description: SANGER: Inhibition of human LN-405 cell growth in a cell viability assay.

MDA-MB-361 = assay type: functional, cell-based, Homo sapiens; details: Homo sapiens, MDA-MB-361
ME-180 = assay type: functional, cell-based; details: Homo sapiens;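 note: cell viability assay measuring growth inhibition of ME-180 cells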
Description: SANGER: Inhibition of human ME-180 cell growth in a cell viability assay.

NB69 = assay type: functional, cell-based, Homo sapiens; details: Homo sapiens, NB69;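 note: growth inhibition of NB69 cells, determined by a cell viability assay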
Description: SANGER: Inhibition of human NB69 cell growth in a cell viability assay.

NCI-H1395 = assay type: functional, cell-based, Homo sapiens; details: Homo sapiens, NCI-H1395;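 note: cell viability assay read-out quantifying reduced proliferation of human NCI-H1395 cells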
Description: SANGER: Inhibition of human NCI-H1395 cell growth in a cell viability assay.

NCI-H2122 = assay type: functional, cell-based, Homo sapiens; details: Homo sapiens, NCI-H2122;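 note: growth inhibition of the cells, read out with a cell viability assay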
Description: SANGER: Inhibition of human NCI-H2122 cell growth in a cell viability assay.

NCI-H510A = assay type: functional, cell-based; details: Homo sapiens;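 note: growth inhibition of NCI-H510A cells, read out with a cell viability assay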
NCI-H650 = assay type: functional, cell-based, Homo sapiens; details: Homo sapiens, NCI-H650;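 note: growth inhibition of NCI-H650 cells, read out by a viability assay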
Description: SANGER: Inhibition of human NCI-H650 cell growth in a cell viability assay.

SNU1 = assay type: functional, cell-based; details: Homo sapiens;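 note: growth inhibition of human NCI-SNU-1 cells, measured with a cell viability assay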
Description: SANGER: Inhibition of human NCI-SNU-1 cell growth in a cell viability assay.

NEC8 = assay type: functional, cell-based, Homo sapiens; details: Homo sapiens, NEC8;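 note: growth inhibition of human NEC8 cells, read out by a cell viability assay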
Description: SANGER: Inhibition of human NEC8 cell growth in a cell viability assay.

NKM-1 = assay type: functional, cell-based; details: Homo sapiens;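 note: growth inhibition of NKM-1 cells, read out with a cell viability assay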
OMC-1 = assay type: functional, cell-based, Homo sapiens; details: Homo sapiens, OMC-1;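 note: growth inhibition of the OMC-1 cell line, measured by a cell viability assay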
Description: SANGER: Inhibition of human OMC-1 cell growth in a cell viability assay.

OS-RC-2 = assay type: functional, cell-based, Homo sapiens; details: Homo sapiens, OS-RC-2;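 note: growth inhibition of human OS-RC-2 cells, measured by a cell viability assay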
Description: SANGER: Inhibition of human OS-RC-2 cell growth in a cell viability assay.

OVCAR-8 = assay type: functional, cell-based, Homo sapiens; details: Homo sapiens, OVCAR-8;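 note: growth inhibition of human OVCAR-8 cells, read out by a cell viability assay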
Description: SANGER: Inhibition of human OVCAR-8 cell growth in a cell viability assay.

QIMR-WIL = assay type: functional, cell-based; details: Homo sapiens;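 note: growth inhibition of QIMR-WIL cells, read out with a cell viability assay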
Description: SANGER: Inhibition of human QIMR-WIL cell growth in a cell viability assay.

RMG-I = assay type: functional, cell-based, Homo sapiens; details: Homo sapiens, RMG-I;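 note: growth inhibition of human RMG-I cells, read out with a cell viability assay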
Description: SANGER: Inhibition of human RMG-I cell growth in a cell viability assay.

SK-N-AS = assay type: functional, cell-based, Homo sapiens; details: Homo sapiens, SK-N-AS;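 note: growth inhibition of human SK-N-AS cells, measured with a cell viability assay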
Description: SANGER: Inhibition of human SK-N-AS cell growth in a cell viability assay.

SK-N-FI = assay type: functional, cell-based, Homo sapiens; details: Homo sapiens, SK-N-FI;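 note: cell viability assay measuring growth inhibition of human SK-N-FI cells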
Description: SANGER: Inhibition of human SK-N-FI cell growth in a cell viability assay.

BV-173 = assay type: functional, cell-based; details: Homo sapiens
Description: SANGER: Inhibition of human BV-173 cell growth in a cell viability assay.

TE-5 = assay type: functional, cell-based, Homo sapiens; details: Homo sapiens, TE-5;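 note: inhibition of cell growth, read out by a cell viability assay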
Description: SANGER: Inhibition of human TE-5 cell growth in a cell viability assay.

TGW = assay type: functional, cell-based; details: Homo sapiens;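 note: growth inhibition of human TGW cells, read out with a cell viability assay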
Description: SANGER: Inhibition of human TGW cell growth in a cell viability assay.

no-11 = assay type: functional, cell-based, Homo sapiens; details: Homo sapiens;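 note: growth inhibition of human NO-11 cells, read out with a cell viability assay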
Description: SANGER: Inhibition of human no-11 cell growth in a cell viability assay.

CCRF-CEM = assay type: functional, cell-based; details: Homo sapiens;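 note: inhibition of CCRF-CEM cell growth, measured by a cell viability assay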
Description: SANGER: Inhibition of human CCRF-CEM cell growth in a cell viability assay.

CGTH-W-1 = assay type: functional, cell-based, Homo sapiens; details: Homo sapiens, CGTH-W-1;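 note: growth inhibition of human CGTH-W-1 cells measured by cell viability assay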
Description: SANGER: Inhibition of human CGTH-W-1 cell growth in a cell viability assay.

COLO-679 = assay type: functional, cell-based, Homo sapiens; details: Homo sapiens, COLO-679
Description: SANGER: Inhibition of human COLO-679 cell growth in a cell viability assay.

COLO-680N = assay type: functional, cell-based, Homo sapiens; details: Homo sapiens, COLO-680N;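 note: cell viability assay used to measure inhibition of COLO-680N cell growth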
Description: SANGER: Inhibition of human COLO-680N cell growth in a cell viability assay.

COLO-684 = assay type: functional, cell-based; details: Homo sapiens
Description: SANGER: Inhibition of human COLO-684 cell growth in a cell viability assay.

Measured: IC50

Cc1ccc(Nc2nccc(N(C)c3ccc4c(C)n(C)nc4c3)n2)cc1S(N)(=O)=O [PAZOPANIB]
> 8000 nM: COLO-741 | COLO-800 | ChaGo-K-1 | DJM-1 | DSH1 | Detroit 562 | EFO-21 | EW-1 | FTC-133 | GMS-10 | HAL-01 | HCC 2998 | HCC38 | HDLM-2 | HOP-92 | HT-29 | HTC-C3 | HuP-T4 | IST-SL1 | KURAMOCHI | KY821 | LN-405 | MDA-MB-361 | ME-180 | NB69 | NCI-H1395 | NCI-H2122 | NCI-H510A | NCI-H650 | SNU1 | NEC8 | NKM-1 | OMC-1 | OS-RC-2 | OVCAR-8 | QIMR-WIL | RMG-I | SK-N-AS | SK-N-FI | BV-173 | TE-5 | TGW | no-11 | CCRF-CEM | COLO-679 | COLO-680N | COLO-684
2510 nM: H4
1450 nM: LCLC-103H cell line
< 31.2 nM: EOL1
6210 nM: CTV-1
40 nM: CGTH-W-1
1460 nM: G-401

C[C@]1(O)C[C@@H](c2nc(-c3ccc4ccc(-c5ccccc5)nc4c3)c3c(N)nccn32)C1 [LINSITINIB]
242 nM: HT-29
85.8 nM: EW-1
883 nM: HCC 2998
> 2560 nM: COLO-741 | COLO-800 | CTV-1 | ChaGo-K-1 | DJM-1 | DSH1 | Detroit 562 | EFO-21 | EOL1 | FTC-133 | GMS-10 | H4 | HAL-01 | HCC38 | HDLM-2 | HOP-92 | HTC-C3 | HuP-T4 | IST-SL1 | KURAMOCHI | KY821 | LCLC-103H cell line | LN-405 | MDA-MB-361 | ME-180 | NCI-H1395 | NCI-H510A | SNU1 | NEC8 | NKM-1 | OMC-1 | OS-RC-2 | OVCAR-8 | QIMR-WIL | RMG-I | SK-N-AS | SK-N-FI | BV-173 | TE-5 | TGW | no-11 | CCRF-CEM | CGTH-W-1 | COLO-679 | COLO-680N | COLO-684
214 nM: NCI-H650
182 nM: G-401
233 nM: NCI-H2122
583 nM: NB69
